{"source": "ChEMBL document CHEMBL6092138", "about": "“Discovery of the potent covalent inhibitor with an acrylate warhead for SARS-CoV-2 3CL protease” (Bioorg Med Chem Lett, 2024)", "key": {"Huh-7": {"system": "Huh-7", "assay": "Cytotoxicity against human Huh-7 cells assessed as reduction in cell viability measured after 7 days by celltiter-glo assay", "format": "functional", "details": "Huh-7, 168 h, time 7 day"}, "Human coronavirus OC43": {"system": "Human coronavirus OC43", "assay": "Antiviral activity against HCoV OC43 infected in human Huh-7 cells assessed as inhibition of viral replication of CPE assay", "format": "functional, organism-based", "details": "Betacoronavirus 1, Huh-7"}, "[1]": {"target": "Replicase polyprotein 1ab (Severe acute respiratory syndrome coronavirus 2, UniProt P0DTD1)", "assay": "Inhibition of 6-his taggedSARS-Cov-2 3-CL protease using Dabcyl-KNSTLQSGLRKE-Edans as substrate preincubated for 60 mins followed by substrate addition by fluorescence based analysis"}, "[2]": {"target": "Replicase polyprotein 1ab (Severe acute respiratory syndrome coronavirus 2) (UniProt P0DTD1)", "assay": "Binding affinity to 6-his taggedSARS-Cov-2 3-CL protease assessed as Kinact/Ki using Dabcyl-KNSTLQSGLRKE-Edans as substrate measured for 120 mins"}}, "data": [{"smiles": "CC(C)(C)[C@H](NC(=O)C(F)(F)F)C(=O)N1C[C@H]2[C@@H]([C@H]1C(=O)N[C@H](C#N)C[C@@H]1CCNC1=O)C2(C)C", "note": "[NIRMATRELVIR]", "values": [{"measurement": "CC50", "setting": "Huh-7", "value": "> 10", "unit": "µM"}, {"measurement": "EC50", "setting": "Human coronavirus OC43", "value": 72, "unit": "nM"}]}, {"smiles": "CN(C)CCOc1c(Cl)cc([C@H](NC(=O)C(F)F)C(=O)N2C[C@H]3[C@@H]([C@H]2C(=O)N[C@H](C#N)C[C@@H]2CCNC2=O)C3(C)C)cc1Cl", "values": [{"measurement": "IC50", "setting": "[1]", "value": 376, "unit": "nM"}]}, {"smiles": "CC(C)C(=O)N[C@H](C(=O)N1C[C@H]2[C@@H]([C@H]1C(=O)N[C@H](C#N)C[C@@H]1CCNC1=O)C2(C)C)c1cc(Cl)c(OCCN(C)C)c(Cl)c1", "values": [{"measurement": "IC50", "setting": "[1]", "value": 206, "unit": "nM"}]}, {"smiles": "CC(C)(C)[C@H](NC(=O)C(F)(F)F)C(=O)N1C[C@H]2[C@@H]([C@H]1C(=O)N[C@H](/C=C/C(N)=O)C[C@@H]1CCNC1=O)C2(C)C", "values": [{"measurement": "CC50", "setting": "Huh-7", "value": "> 10", "unit": "µM"}, {"measurement": "IC50", "setting": "[1]", "value": 23.4, "unit": "nM"}, {"measurement": "K", "setting": "[2]", "value": 0.585, "unit": "µM⁻¹ min⁻¹"}, {"measurement": "EC50", "setting": "Human coronavirus OC43", "value": 9070, "unit": "nM"}]}, {"smiles": "CC(=O)/C(C)=C\\[C@H](C[C@@H]1CCNC1=O)NC(=O)[C@@H]1[C@@H]2[C@H](CN1C(=O)[C@@H](NC(=O)C(F)(F)F)C(C)(C)C)C2(C)C", "values": [{"measurement": "IC50", "setting": "[1]", "value": 50.7, "unit": "nM"}]}, {"smiles": "COC(=O)/C=C/[C@H](C[C@@H]1CCNC1=O)NC(=O)[C@@H]1[C@@H]2[C@H](CN1C(=O)[C@@H](NC(=O)C(F)(F)F)C(C)(C)C)C2(C)C", "values": [{"measurement": "CC50", "setting": "Huh-7", "value": "> 10", "unit": "µM"}, {"measurement": "IC50", "setting": "[1]", "value": 28.9, "unit": "nM"}, {"measurement": "K", "setting": "[2]", "value": 1.03, "unit": "µM⁻¹ min⁻¹"}, {"measurement": "EC50", "setting": "Human coronavirus OC43", "value": 97, "unit": "nM"}]}, {"smiles": "CN(C)CCOc1c(Cl)cc([C@H](NC(=O)C(F)(F)F)C(=O)N2C[C@H]3[C@@H]([C@H]2C(=O)N[C@H](C#N)C[C@@H]2CCNC2=O)C3(C)C)cc1Cl", "values": [{"measurement": "IC50", "setting": "[1]", "value": 631, "unit": "nM"}]}, {"smiles": "CN(C)CCOc1c(Cl)cc(C(NC(=O)C(C)(C)F)C(=O)N2C[C@H]3[C@@H]([C@H]2C(=O)N[C@H](C#N)C[C@@H]2CCNC2=O)C3(C)C)cc1Cl", "note": "(stereo not given in full)", "values": [{"measurement": "IC50", "setting": "[1]", "value": 249, "unit": "nM"}]}]}
